According to patent US20260022142A1, “MACROCYCLIC IMMUNOMODULATORS” (Bristol-Myers Squibb Company, priority 2022, published 2026):
Numbered stars: 1 amine (or outer) side, 2 acyl side, 3 side chain; on linkers, the order of the positions; unused ones are H or OH. Bridge positions count the residues as written; N and C are the ends. Square brackets hold non-standard residues; d marks the D form. Peptide text beside a SMILES is read from it. * marks the point of attachment. Bip = N[C@@H](Cc1ccc(-c2ccccc2)cc1)C(=O)O; X10 = O=C([C@H](Cc1cc[nH]c1)N[*:1])[*:2]; Phe(3-Me) = Cc1cccc(C[C@H](N)C(=O)O)c1; Cha = N[C@@H](CC1CCCCC1)C(=O)O; Cit = NC(=O)NCCC[C@H](N)C(=O)O; Carboxymethyl = O=C(O)C*; Orn = NCCC[C@H](N)C(=O)O; Aun = NCCCCCCCCCCC(=O)O; Dab = NCC[C@H](N)C(=O)O; Dap = NC[C@H](N)C(=O)O

Target: T1, PD-1/PD-L1 interaction (PE-labeled human PD-L1-Ig binding to Jurkat cell line over-expressing human PD-1) (Homo sapiens, UniProt Q15116)
T1 construct: expressed in transfected cells; host or cells: Jurkat
Assay: Jurkat-PD-1 Cell Binding High-Content Screening Assay (CBA)
Type: cell-based
Settings: Jurkat cell line over-expressing human PD-1; PE-labeled PD-L1-Ig 20 nM final; read-out: Jurkat hPD1-PDL1 IC50
Procedure, shortened: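 Binding of fluorescent PD-L1-Ig (phycoerythrin on Ig tag, 20 nM final, 1 h) measured by high-content imaging of fixed, Hoechst-counterstained Jurkat-hPD-1 cells. Compound added 2 h at 37° C beforehand, in DMEM with 10% fetal calf serum.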

T1 sequence (Q15116 25-288): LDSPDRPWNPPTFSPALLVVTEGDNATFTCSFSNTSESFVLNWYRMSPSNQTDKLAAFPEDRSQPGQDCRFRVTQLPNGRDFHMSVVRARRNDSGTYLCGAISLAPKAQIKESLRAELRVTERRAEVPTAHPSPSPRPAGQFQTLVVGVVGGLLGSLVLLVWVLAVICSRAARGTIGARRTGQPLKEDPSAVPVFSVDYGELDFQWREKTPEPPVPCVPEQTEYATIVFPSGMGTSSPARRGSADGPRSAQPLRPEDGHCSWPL

Structure (SMILES) | IC50 [nM]
Cc1cccc(C[C@@H]2NC(=O)[C@H](CC(=O)O)NC(=O)[C@H](Cc3ccc(O)cc3)NC(=O)[C@H](CC(N)=O)NC(=O)CSC[C@@H](C(=O)N[C@@H](CCCN)C(=O)NCCCCCCCCCCC(=O)O)NC(=O)[C@@H](CCC(N)=O)NC(=O)[C@H](C(C)C)NC(=O)[C@H](CC(C)C)NC(=O)[C@H](CCN)NC(=O)[C@@H](CC(C)C)NC(=O)[C@H](CCCN)NC(=O)[C@H](CCCNC(N)=O)NC(=O)[C@H](Cc3ccc(-c4ccccc4)cc3)NC(=O)[C@H](C(C)C)NC2=O)c1 [Compound 2792] ({CH2CO}-NYD[Phe(3-Me)]V[Bip][Cit][Orn][dL][Dab]LV[dQ]C[Orn][Aun]-OH; thioether N-14) | 75.7
CC(C)C[C@H]1NC(=O)[C@H](CCCN)NC(=O)[C@H](C(C)C)NC(=O)[C@H](Cc2ccc(-c3ccccc3)cc2)NC(=O)[C@H](C(C)C)NC(=O)[C@H](Cc2c[nH]c3ccccc23)NC(=O)[C@H](CC(=O)O)NC(=O)[C@H](Cc2ccc(OCC(=O)O)cc2)NC(=O)[C@H](CN)NC(=O)CSC[C@@H](C(=O)N[C@@H](CCN)C(=O)NCCCCCCCCCCC(=O)O)NC(=O)[C@H](CCC(N)=O)NC(=O)[C@H](C(C)C)NC(=O)[C@H](CC2CCCCC2)NC(=O)[C@H](Cc2c[nH]cn2)NC1=O [Compound 2793] ({CH2CO}-[Dap]Y(Carboxymethyl)DWV[Bip]V[Orn][dL]H[Cha]VQC[Dab][Aun]-OH; thioether N-14) | 21.6
Cc1cccc(C[C@@H]2NC(=O)[C@H](CC(=O)O)NC(=O)[C@H](Cc3ccc(OCC(=O)O)cc3)NC(=O)[C@H](CCCNC(=N)N)NC(=O)CSC[C@@H](C(=O)N[C@@H](CCN)C(=O)NCCCCCCCCCCC(=O)O)NC(=O)[C@H](CCC(N)=O)NC(=O)[C@H](C(C)C)NC(=O)[C@H](CC3CCCCC3)NC(=O)[C@H](CCN)NC(=O)[C@@H](CC(C)C)NC(=O)[C@H](CCN)NC(=O)[C@H](CCCNC(N)=O)NC(=O)[C@H](Cc3ccc(-c4ccccc4)cc3)NC(=O)[C@H](C(C)C)NC2=O)c1 [Compound 2797] ({CH2CO}-RY(Carboxymethyl)D[Phe(3-Me)]V[Bip][Cit][Dab][dL][Dab][Cha]VQC[Dab][Aun]-OH; thioether N-14) | 11.8
Cc1cccc(C[C@@H]2NC(=O)[C@H](CC(=O)O)NC(=O)[C@H](Cc3ccc(OCC(=O)O)cc3)NC(=O)[C@H](CCCNC(=N)N)NC(=O)CSC[C@@H](C(=O)N[C@@H](CCCN)C(=O)NCCCCCCCCCCC(=O)O)NC(=O)[C@@H](CCC(N)=O)NC(=O)[C@H](C(C)C)NC(=O)[C@H](CC3CCCCC3)NC(=O)[C@H](CCN)NC(=O)[C@@H](CC(C)C)NC(=O)[C@H](CCN)NC(=O)[C@H](CCCNC(N)=O)NC(=O)[C@H](Cc3ccc(-c4ccccc4)cc3)NC(=O)[C@H](C(C)C)NC2=O)c1 [Compound 2799] ({CH2CO}-RY(Carboxymethyl)D[Phe(3-Me)]V[Bip][Cit][Dab][dL][Dab][Cha]V[dQ]C[Orn][Aun]-OH; thioether N-14) | 20
Cc1cccc(C[C@@H]2NC(=O)[C@H](CC(=O)O)NC(=O)[C@H](Cc3ccc(O)cc3)NC(=O)[C@H](CC(N)=O)NC(=O)CSC[C@@H](C(=O)N[C@@H](CCCCN)C(=O)NCCCCCCCCCCC(=O)O)NC(=O)[C@H](CN)NC(=O)[C@H](C(C)C)NC(=O)[C@H](CC(C)C)NC(=O)[C@H](CCN)NC(=O)[C@@H](CC(C)C)NC(=O)[C@H](CCCN)NC(=O)[C@H](CCCNC(N)=O)NC(=O)[C@H](Cc3ccc(-c4ccccc4)cc3)NC(=O)[C@H](C(C)C)NC2=O)c1 [Compound 2800] ({CH2CO}-NYD[Phe(3-Me)]V[Bip][Cit][Orn][dL][Dab]LV[Dap]CK[Aun]-OH; thioether N-14) | 84.6
Cc1cccc(C[C@@H]2NC(=O)[C@H](CC(=O)O)NC(=O)[C@H](Cc3ccc(OCC(=O)O)cc3)NC(=O)[C@H](CCCNC(=N)N)NC(=O)CSC[C@@H](C(=O)N[C@@H](CCCCN)C(=O)NCCCCCCCCCCC(=O)O)NC(=O)[C@H](CN)NC(=O)[C@H](C(C)C)NC(=O)[C@H](CC3CCCCC3)NC(=O)[C@H](CCN)NC(=O)[C@@H](CC(C)C)NC(=O)[C@H](CCN)NC(=O)[C@H](CCCNC(N)=O)NC(=O)[C@H](Cc3ccc(-c4ccccc4)cc3)NC(=O)[C@H](C(C)C)NC2=O)c1 [Compound 2802] ({CH2CO}-RY(Carboxymethyl)D[Phe(3-Me)]V[Bip][Cit][Dab][dL][Dab][Cha]V[Dap]CK[Aun]-OH; thioether N-14) | 15.4
Cc1cccc(C[C@@H]2NC(=O)[C@H](CC(=O)O)NC(=O)[C@H](Cc3ccc(O)cc3)NC(=O)[C@H](CC(N)=O)NC(=O)CSC[C@@H](C(=O)N[C@@H](CCCCN)C(=O)NCCCCCCCCCCC(=O)O)NC(=O)[C@H](CCCN)NC(=O)[C@H](C(C)C)NC(=O)[C@H](CC(C)C)NC(=O)[C@H](CCN)NC(=O)[C@@H](CC(C)C)NC(=O)[C@H](CCCN)NC(=O)[C@H](CCCNC(N)=O)NC(=O)[C@H](Cc3ccc(-c4ccccc4)cc3)NC(=O)[C@H](C(C)C)NC2=O)c1 [Compound 2803] ({CH2CO}-NYD[Phe(3-Me)]V[Bip][Cit][Orn][dL][Dab]LV[Orn]CK[Aun]-OH; thioether N-14) | 73.9
Cc1cccc(C[C@@H]2NC(=O)[C@H](CC(=O)O)NC(=O)[C@H](Cc3ccc(OCC(=O)O)cc3)NC(=O)[C@H](CCCNC(=N)N)NC(=O)CSC[C@@H](C(=O)N[C@@H](CCCCN)C(=O)NCCCCCCCCCCC(=O)O)NC(=O)[C@H](CCCN)NC(=O)[C@H](C(C)C)NC(=O)[C@H](CC3CCCCC3)NC(=O)[C@H](CCN)NC(=O)[C@@H](CC(C)C)NC(=O)[C@H](CCN)NC(=O)[C@H](CCCNC(N)=O)NC(=O)[C@H](Cc3ccc(-c4ccccc4)cc3)NC(=O)[C@H](C(C)C)NC2=O)c1 [Compound 2805] ({CH2CO}-RY(Carboxymethyl)D[Phe(3-Me)]V[Bip][Cit][Dab][dL][Dab][Cha]V[Orn]CK[Aun]-OH; thioether N-14) | 9.9

Continued, values first:

IC50 [nM] | Structure (SMILES)
28 | CC(C)C[C@H]1NC(=O)[C@H](CCCN)NC(=O)[C@H](C(C)C)NC(=O)[C@H](Cc2ccc(-c3ccccc3)cc2)NC(=O)[C@H](C(C)C)NC(=O)[C@H](Cc2c[nH]c3ccccc23)NC(=O)[C@H](CC(=O)O)NC(=O)[C@H](Cc2ccc(OCC(=O)O)cc2)NC(=O)[C@H](CN)NC(=O)CSC[C@@H](C(=O)N[C@@H](CCCN)C(=O)NCCCCCCCCCCC(=O)O)NC(=O)[C@H](CCC(N)=O)NC(=O)[C@H](C(C)C)NC(=O)[C@H](CC2CCCCC2)NC(=O)[C@H](Cc2c[nH]cn2)NC1=O [Compound 2794] ({CH2CO}-[Dap]Y(Carboxymethyl)DWV[Bip]V[Orn][dL]H[Cha]VQC[Orn][Aun]-OH; thioether N-14)
63.4 | CC(C)C[C@H]1NC(=O)[C@H](CCCN)NC(=O)[C@H](C(C)C)NC(=O)[C@H](Cc2ccc(-c3ccccc3)cc2)NC(=O)[C@H](C(C)C)NC(=O)[C@H](Cc2c[nH]c3ccccc23)NC(=O)[C@H](CC(=O)O)NC(=O)[C@H](Cc2ccc(OCC(=O)O)cc2)NC(=O)[C@H](CN)NC(=O)CSC[C@@H](C(=O)N[C@@H](CCN)C(=O)NCCCCCCCCCCC(=O)O)NC(=O)[C@@H](CCC(N)=O)NC(=O)[C@H](C(C)C)NC(=O)[C@H](CC2CCCCC2)NC(=O)[C@H](Cc2c[nH]cn2)NC1=O [Compound 2795] ({CH2CO}-[Dap]Y(Carboxymethyl)DWV[Bip]V[Orn][dL]H[Cha]V[dQ]C[Dab][Aun]-OH; thioether N-14)
78.5 | CC(C)C[C@H]1NC(=O)[C@H](CCCN)NC(=O)[C@H](C(C)C)NC(=O)[C@H](Cc2ccc(-c3ccccc3)cc2)NC(=O)[C@H](C(C)C)NC(=O)[C@H](Cc2c[nH]c3ccccc23)NC(=O)[C@H](CC(=O)O)NC(=O)[C@H](Cc2ccc(OCC(=O)O)cc2)NC(=O)[C@H](CN)NC(=O)CSC[C@@H](C(=O)N[C@@H](CCCN)C(=O)NCCCCCCCCCCC(=O)O)NC(=O)[C@@H](CCC(N)=O)NC(=O)[C@H](C(C)C)NC(=O)[C@H](CC2CCCCC2)NC(=O)[C@H](Cc2c[nH]cn2)NC1=O [Compound 2796] ({CH2CO}-[Dap]Y(Carboxymethyl)DWV[Bip]V[Orn][dL]H[Cha]V[dQ]C[Orn][Aun]-OH; thioether N-14)
7.1 | Cc1cccc(C[C@@H]2NC(=O)[C@H](CC(=O)O)NC(=O)[C@H](Cc3ccc(OCC(=O)O)cc3)NC(=O)[C@H](CCCNC(=N)N)NC(=O)CSC[C@@H](C(=O)N[C@@H](CCCN)C(=O)NCCCCCCCCCCC(=O)O)NC(=O)[C@H](CCC(N)=O)NC(=O)[C@H](C(C)C)NC(=O)[C@H](CC3CCCCC3)NC(=O)[C@H](CCN)NC(=O)[C@@H](CC(C)C)NC(=O)[C@H](CCN)NC(=O)[C@H](CCCNC(N)=O)NC(=O)[C@H](Cc3ccc(-c4ccccc4)cc3)NC(=O)[C@H](C(C)C)NC2=O)c1 [Compound 2798] ({CH2CO}-RY(Carboxymethyl)D[Phe(3-Me)]V[Bip][Cit][Dab][dL][Dab][Cha]VQC[Orn][Aun]-OH; thioether N-14)
327 | CC(C)C[C@H]1NC(=O)[C@H](CCCN)NC(=O)[C@H](C(C)C)NC(=O)[C@H](Cc2ccc(-c3ccccc3)cc2)NC(=O)[C@H](C(C)C)NC(=O)[C@H](Cc2c[nH]c3ccccc23)NC(=O)[C@H](CC(=O)O)NC(=O)[C@H](Cc2ccc(OCC(=O)O)cc2)NC(=O)[C@H](CN)NC(=O)CSC[C@@H](C(=O)N[C@@H](CCCCN)C(=O)NCCCCCCCCCCC(=O)O)NC(=O)[C@H](CN)NC(=O)[C@H](C(C)C)NC(=O)[C@H](CC2CCCCC2)NC(=O)[C@H](Cc2cc[nH]c2)NC1=O [Compound 2801] ({CH2CO}-[Dap]Y(Carboxymethyl)DWV[Bip]V[Orn][dL][X10][Cha]V[Dap]CK[Aun]-OH; thioether N-14)
51 | CC(C)C[C@H]1NC(=O)[C@H](CCCN)NC(=O)[C@H](C(C)C)NC(=O)[C@H](Cc2ccc(-c3ccccc3)cc2)NC(=O)[C@H](C(C)C)NC(=O)[C@H](Cc2c[nH]c3ccccc23)NC(=O)[C@H](CC(=O)O)NC(=O)[C@H](Cc2ccc(OCC(=O)O)cc2)NC(=O)[C@H](CN)NC(=O)CSC[C@@H](C(=O)N[C@@H](CCCCN)C(=O)NCCCCCCCCCCC(=O)O)NC(=O)[C@H](CCCN)NC(=O)[C@H](C(C)C)NC(=O)[C@H](CC2CCCCC2)NC(=O)[C@H](Cc2c[nH]cn2)NC1=O [Compound 2804] ({CH2CO}-[Dap]Y(Carboxymethyl)DWV[Bip]V[Orn][dL]H[Cha]V[Orn]CK[Aun]-OH; thioether N-14)
